Data taken from patent US20180264134A1, “A COMPOSITION OF GOLD NANOPARTICLES HAVING ANTIMICROBIAL PEPTIDES BOUND ON THEIR SURFACE FOR USE THE TREATMENT OF WOUND HEALING OR IN THE TREATMENT OF ISCHEMIC OR VASCULAR DISEASES OR IN THE TREATMENT OF SKIN DISORDERS” (priority 2015, published 2018).

Assays:
HaCaT = assay: Membrane potential by DiOC5(3) flow cytometry in HaCaT; format: cell-based, human
Procedure: In an embodiment the membrane potential can be determined by: HUVEC and HaCaT cells were seeded at a density of 4×10^4 cells/cm^2 and in 24-well plates and cultured for 24 h. […] Soluble LL37 were also used in the concentration of 0.5, 1, 10, 30, 60 μg/mL. After 5 and 48 h, cells were harvested, resuspended in medium with 5 nM of DiOC5(3) (Sigma-Aldrich) and incubated for 5 min at room temperature in the dark, prior to the analysis with the flow cytometer (FACSCalibur, BD Biosciences). Cells treated with gramicidin (10 μM) or valinomycin (10 μM) were used as controls for cell depolarization and hyperpolarization, respectively.

HaCaT keratinocyte cells = assay: Internalization mechanism (endocytosis inhibitors / siRNA, flow cytometry); format: cell-based, human; details: vs scrambled siRNA
Procedure: In an embodiment the HaCaT keratinocyte cells were cultured on 24 well plates (1×10^6 cells/well) and inhibited by one of the following chemicals during 30 min before adding a suspension of Rhodamine-labelled NPs (15 μg/mL): dynasor (100 μM), cytochalasin D (100 μM), nocodazole (25 uM), filipin III (1 μM) and polyinosinic acid (100 μg/mL), 5-(N-ethyl-N-isopropyl)amiloride (EIPA), dextran sulfate. The inhibitor concentrations were based in values reported in literature and further validated by us to have no cytotoxic effect over the period of the assay (6 h), as confirmed by viability assay. The incubation of the cells with NPs for different times was performed in the presence of the inhibitor. As controls, HaCaT keratinocyte cells without NPs and cells incubated with NPs without inhibitor were used. […] Cells were then evaluated as before.
In an embodiment the NP uptake mechanism was also studied on HaCaT keratinocyte cells by silencing specific proteins of clathrin-mediated endocytosis (CLTC and LDLR), caveolin-mediated endocytosis (CAV1), GEEC-CCLIC pathways (CDC42) and macropinocytosis (RAC1 and CTBP1) and scavenger receptor (SCARA3) by siRNA (Thermo Fisher). […] In all FACS analysis, a total of 10,000 events were recorded per run. […]

HUVECs = assay: VEGF secretion in HUVECs (ELISA); format: cell-based, human; details: 24 h, LL37 5 μg/mL, NPs 200 μg/mL
Procedure: In an embodiment measurement of VEGF amount in HUVECs can be perform by the following method: HUVECs were seeded at a density of 4×10^4 cells/cm^2 in 24-well plates and cultured for 24 h in EGM-2 without VEGF. LL-37 (5 μg/mL), LL37 AUNPs and AuNPs (200 μg/mL) suspended in culture medium without VEGF at different concentrations were added to cells. LL-37 (5 μg/mL) and LL-37 AUNPs (200 μg/mL) were also incubated in the presence of 10 μM of FPRL1 Antagonist. After 24 h of incubation, cell media from all the conditions were collected and used to quantify VEGF amount in supernatants. In order to calculate the amount of VEGF in supernatants, Human VEGF ELISA development Kit (PeproTech) was used according to the manufacture's instructions. A calibration curve was used for the ranging between 0-1000 pg/mL VEGF.

EGFR = EGFR phosphorylation in HaCaT (ELISA); format: cell-based, human; details: LL37 5 μg/mL; LL37-Au NPs 15 or 200 μg/mL
Procedure: In an embodiment the detection of EGFR and ERK1/2 phosphorylation, can be perform by: the activation of EGFR receptor in HaCaT (80% confluency, in 6-well plates) was induced by starving the cells for 24 h in DMEM supplemented with 1% (v/v) penicillin and adding soluble LL37, LL37-Au NPs and Au NPs for a given period of time. Following treatment, the plates were immersed in ice and the medium was discarded. Then the proteins were isolated from the cells . . . . The levels of EGFR (phosphorylated EGFR and total EGFR) were determined by ELISA kit (R&D Systems). The activation of ERK signaling pathways in HaCaT (80% confluency, in one 96-well cell culture clear-bottom black microplate) were obtained starving the cells for 24 h in DMEM supplemented with 1% (v/v) penicillin and then stimulating them with soluble LL37 (5 μg/mL), LL37-Au NPs and Au NPs (200 μg/mL). After treatments the level of ERK were determined using a phosphoprotein and total protein ELISA kit (R&D Systems ref. KCB1018) according to the manufacture's instructions. Data were acquired with a BioTek synergy MX microplate reader.

venous leg ulcers = details: cited from earlier work

Structure (SMILES): CC[C@H](C)[C@H](NC(=O)[C@H](CCCCN)NC(=O)[C@H](CCC(=O)O)NC(=O)[C@H](CCCCN)NC(=O)[C@H](CO)NC(=O)[C@H](CCCCN)NC(=O)[C@H](CCCNC(=N)N)NC(=O)[C@H](Cc1ccccc1)NC(=O)[C@H](Cc1ccccc1)NC(=O)[C@H](CC(=O)O)NC(=O)CNC(=O)[C@H](CC(C)C)NC(=O)[C@@H](N)CC(C)C)C(=O)NCC(=O)N[C@@H](CCCCN)C(=O)N[C@@H](CCC(=O)O)C(=O)N[C@@H](Cc1ccccc1)C(=O)N[C@@H](CCCCN)C(=O)N[C@@H](CCCNC(=N)N)C(=O)N[C@H](C(=O)N[C@H](C(=O)N[C@@H](CCC(N)=O)C(=O)N[C@@H](CCCNC(=N)N)C(=O)N[C@H](C(=O)N[C@@H](CCCCN)C(=O)N[C@@H](CC(=O)O)C(=O)N[C@@H](Cc1ccccc1)C(=O)N[C@@H](CC(C)C)C(=O)N[C@@H](CCCNC(=N)N)C(=O)N[C@@H](CC(N)=O)C(=O)N[C@@H](CC(C)C)C(=O)N[C@H](C(=O)N1CCC[C@H]1C(=O)N[C@@H](CCCNC(=N)N)C(=O)N[C@H](C(=O)N[C@@H](CCC(=O)O)C(=O)N[C@@H](CO)C(=O)N[C@@H](CS)C(N)=O)[C@@H](C)O)C(C)C)[C@@H](C)CC)C(C)C)[C@@H](C)CC [LL37]
- membrane potential of keratinocytes (HaCaT; 5 h of contact): hyperpolarized
- membrane potential of keratinocytes (HaCaT; 48 h of contact): not observed
- membrane potential of keratinocytes (HaCaT; 48 h of contact, listed as LL37 peptide): the effect was lost
- membrane potential of HaCaT (HaCaT; NPs up to 400 μg/mL): not altered
- concentration causing slight hyperpolarization (HaCaT; keratinocytes, 5 h exposure): above 25 μg/mL
- reduction of uptake upon SCARA3 siRNA knockdown (HaCaT keratinocyte cells): 60%
- secretion of VEGF165 (HUVECs): induce the secretion
- persistence of EGFR phosphorylation (EGFR): 10 min
- time of peak EGFR phosphorylation (EGFR): 8 min
- primary safety and tolerability end-point (venous leg ulcers; patients with venous leg ulcers): met
- healing rate compared with placebo (venous leg ulcers; twice per week, 0.5 mg/mL): statistically significant improved healing rate
